Patent publication US20220023281A1, “HETEROCYCLIC SPIRO-COMPOUNDS AS AM2 RECEPTOR INHIBITORS” (THE UNIVERSITY OF SHEFFIELD, priority 2018, published 2022)

The compounds below were run against T1, AM2 receptor-expressing cells (1321N1 cells transfected with CALCRL+RAMP3) (Homo sapiens, UniProt O60896+Q16602) (assay: AM2 receptor inhibition, LANCE cAMP agonist-antagonist competition assay (AM2 D2 protocol)). Details: inhibition of AM induced cAMP in 1321N1 cells expressing CALCRL+RAMP3; read-out: AM2 D2 protocol: pIC50 (converted).
T1 construct: host or cells: 1321N1 cells
Format: cell-based
Procedure: Compounds were assessed for their ability to inhibit ligand-induced elevations of cAMP, using the Perkin Elmer LANCE cAMP assay using commercially-available cells expressing a specific receptor of interest using the following general procedure:
Compounds were prepared in dimethyl sulfoxide (DMSO—99.9% pure) (Sigma Aldrich, Cat #: D4540) added to powder stocks to produce a 20 mM solution (100% DMSO) that was sonicated at 37° C. for 10 minutes to fully dissolve the compounds. The 20 mM stocks were diluted further in DMSO to produce a 2 mM solution that was sonicated at 37° C. for 10 minutes. 2 mM stocks were dissolved in assay/stimulation buffer to produce a 400 μM solution that was sonicated at 37° C. for 10 minutes for all cAMP assays. All stocks were stored at −20° C. Then serial dilution (Dilution factor: 10) was performed to achieve the desire experimental concentrations.
Competition assays were performed according to the manufactures instructions using LANCE® TR-FRET cAMP assay kit (Perkin Elmer, Cat #: AD0264). Serial dilutions (3 μl/well) of the molecules were plated in a 384-well OptiPlate (Perkin Elmer, Cat #: 6007299) in duplicates. Appropriate controls (100% stimulation: Forskolin and 0% stimulation: Vehicle control) (6 μl/well) were included in each plate for data normalization. Following the compound addition, 6 μl of G-protein coupled receptor overexpressing cells/Alexa Fluor antibody solution (1:100 dilution) was added in each well at a desired density of 2500 cells/well. The overexpressing cell lines were purchased from DiscoveRx, Birmingham, UK. After spinning the plate at 1000 rpm for 1 minute and vortexing briefly, the cells were pre-incubated with the compounds for 30 minutes at room temperature (covered). Then 3 μl of the equivalent peptide ligand (EC50 dose) was added to all the wells except vehicle and forskolin controls. The plate were then spun down at 1000 rpm for 1 minute and once finished they were vortexed briefly and covered. Cells were stimulated in the presence of the ligands for 15 minutes at room temperature. After stimulation 12 μl of detection mix (Europium-Chelate streptavidin/biotinylated cAMP tracer solution) was added to all wells and incubated for 60 minutes at room temperature. The plate was then read on the Enspire multimode Plate reader (Perkin Elmer), at; 320/340 nm excitation and 615/665 nm emission was recorded.
Assay/Stimulation Buffer (30 mL)—pH 7.4 • 28 mL Hank's Balanced salt solution (+MgCl2, +CaCl2))—(Thermo Fisher Cat #:14170112) • 150 μl HEPES (1M)—(Thermo Fisher Cat #:15630080) • 400 μl Stabilizer (DTPA) Purified BSA (7.5%)—(Perkin Elmer, Cat #: CR84-100) • 60 μl IBMX (250 mM)—(Sigma Aldrich, Cat #: 15879)
The ability of a compound to inhibit the AM induced cAMP activation in AM2 receptor-expressing cells (1321N1 cells transfected with CALCRL+RAMP3, sourced from DiscoverX catalogue number 95-0169C6) was assessed using the protocol above.

T1 sequence (Q16602 23-461): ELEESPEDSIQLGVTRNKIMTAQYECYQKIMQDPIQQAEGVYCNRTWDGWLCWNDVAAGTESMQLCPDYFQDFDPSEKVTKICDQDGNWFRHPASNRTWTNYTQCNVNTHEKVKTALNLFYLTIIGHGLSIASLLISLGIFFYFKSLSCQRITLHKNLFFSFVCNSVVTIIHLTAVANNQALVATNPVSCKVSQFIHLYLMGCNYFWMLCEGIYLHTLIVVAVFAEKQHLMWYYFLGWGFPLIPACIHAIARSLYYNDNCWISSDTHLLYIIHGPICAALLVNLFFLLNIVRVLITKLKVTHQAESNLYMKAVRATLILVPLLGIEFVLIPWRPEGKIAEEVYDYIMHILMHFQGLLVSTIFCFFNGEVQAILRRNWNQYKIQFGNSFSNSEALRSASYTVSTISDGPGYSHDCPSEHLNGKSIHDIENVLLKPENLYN
T1 sequence (O60896 24-148): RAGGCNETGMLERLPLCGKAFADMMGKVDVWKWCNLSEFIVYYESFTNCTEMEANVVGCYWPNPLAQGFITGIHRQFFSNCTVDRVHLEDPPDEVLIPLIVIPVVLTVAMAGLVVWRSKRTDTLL

| SMILES | IC50 [nM] |
| --- | --- |
| O=C(CN(C(=O)C1CCCC1)[C@H]1CCCNC1)Nc1ccc2c(c1)C[C@@]1(C2)C(=O)Nc2ncccc21 [Example 5, N-(2-Oxo-2-(((R)-2′-oxo-1,1′,2′,3-tetrahydrospiro[indene-2,3′-pyrrolo[2,3-b]pyridin]-5-yl)amino)ethyl)-N—((S)-piperidin-3-yl)cyclopentanecarboxamide] | 170 |
| CCC1(C(=O)N(CC(=O)Nc2ccc3c(c2)C[C@@]2(C3)C(=O)Nc3ncccc32)[C@H]2CCCNC2)CCN(C(C)=O)CC1 [Example 19, 1-Acetyl-4-ethyl-N-(2-oxo-2-(((R)-2′-oxo-1,1′,2′,3-tetrahydrospiro[indene-2,3′-pyrrolo[2,3-b]pyridin]-5-yl)amino)ethyl)-N—((S)-piperidin-3-yl)piperidine-4-carboxamide] | 14.1 |
| CC1(C(=O)N(CC(=O)Nc2ccc3c(c2)C[C@@]2(C3)C(=O)Nc3ncccc32)[C@H]2CCCNC2)CCNCC1 [Example 15, 4-Methyl-N-(2-oxo-2-(((R)-2′-oxo-1,1′,2′,3-tetrahydrospiro[indene-2,3′-pyrrolo[2,3-b]pyridin]-5-yl)amino)ethyl)-N—((S)-piperidin-3-yl)piperidine-4-carboxamide] | 50.1 |
| CC1(C(=O)N(CC(=O)Nc2ccc3c(c2)C[C@@]2(C3)C(=O)Nc3ncccc32)[C@H]2CCCNC2)CCN(C(=O)CN2CCNCC2)CC1 [Example 18, 4-Methyl-N-(2-oxo-2-(((R)-2′-oxo-1,1′,2′,3-tetrahydrospiro[indene-2,3′-pyrrolo[2,3-b]pyridin]-5-yl)amino)ethyl)-1-(2-(piperazin-1-yl)acetyl)-N—((S)-piperidin-3-yl)piperidine-4-carboxamide] | 67.6 |
| CC(C)(C)C(=O)N(CC(=O)Nc1ccc2c(c1)C[C@@]1(C2)C(=O)Nc2ncccc21)C1CC2CNC1C2 (stereo partly drawn) [Example 30, N-(2-Azabicyclo[2.2.1]heptan-6-yl)-N-(2-oxo-2-(((R)-2′-oxo-1,1′,2′,3-tetrahydrospiro[indene-2,3′-pyrrolo[2,3-b]pyridin]-5-yl)amino)ethyl)pivalamide] | 3020 |
| CNC(=O)N1CCC(C)(C(=O)N(CC(=O)Nc2ccc3c(c2)C[C@@]2(C3)C(=O)Nc3ncccc32)[C@H]2CCCNC2)CC1 [Example 20, N1,4-Dimethyl-N4-[2-oxo-2-[[(3R)-2-oxospiro[1H-pyrrolo[2,3-b]pyridine-3,2′-indane]-5′-yl]amino]ethyl]-N4-[(3S)-3-piperidyl]piperidine-1,4-dicarboxamide] | 56.2 |
| O=C(CN(C(=O)C1(C(F)(F)F)CC1)[C@H]1CCCNC1)Nc1ccc2c(c1)C[C@@]1(C2)C(=O)Nc2ncccc21 [Example 7, N-(2-Oxo-2-(((R)-2′-oxo-1,1′,2′,3-tetrahydrospiro[indene-2,3′-pyrrolo[2,3-b]pyridin]-5-yl)amino)ethyl)-N—((S)-piperidin-3-yl)-1-(trifluoromethyl)cyclopropanecarboxamide] | 955 |
| CC(=O)N1CCN(C(=O)N(CC(=O)Nc2ccc3c(c2)C[C@@]2(C3)C(=O)Nc3ncccc32)[C@H]2CCCNC2)CC1 [Example 23, 4-Acetyl-N-(2-oxo-2-(((R)-2′-oxo-1,1′,2′,3-tetrahydrospiro[indene-2,3′-pyrrolo[2,3-b]pyridin]-5-yl)amino)ethyl)-N—((S)-piperidin-3-yl)piperazine-1-carboxamide] | 2880 |
| CC1(C(=O)N(CC(=O)Nc2ccc3c(c2)C[C@@]2(C3)C(=O)Nc3ncccc32)[C@H]2CCCNC2)CCN(C(=O)N2CCCC2)CC1 [Example 21, 4-Methyl-N-(2-oxo-2-(((R)-2′-oxo-1,1′,2′,3-tetrahydrospiro[indene-2,3′-pyrrolo[2,3-b]pyridin]-5-yl)amino)ethyl)-N—((S)-piperidin-3-yl)-1-(pyrrolidine-1-carbonyl)piperidine-4-carboxamide] | 27.5 |
| O=C(CN(C(=O)C12CC(C1)C2)[C@H]1CCCNC1)Nc1ccc2c(c1)C[C@@]1(C2)C(=O)Nc2ncccc21 [Example 4, N-(2-Oxo-2-(((R)-2′-oxo-1,1′,2′,3-tetrahydrospiro[indene-2,3′-pyrrolo [2,3-b]pyridin]-5-yl)amino)ethyl)-N—((S)-piperidin-3-yl)bicyclo[1.1.1]pentane-1-carboxamide] | 251 |
| CC(=O)N1CCC(C)(C(=O)N(CC(=O)Nc2ccc3c(c2)C[C@@]2(C3)C(=O)Nc3ncccc32)[C@H]2CCCNC2)CC1 [Example 16, 1-Acetyl-4-methyl-N-(2-oxo-2-(((R)-2′-oxo-1,1′,2′,3-tetrahydrospiro[indene-2,3′-pyrrolo[2,3-b]pyridin]-5-yl)amino)ethyl)-N—((S)-piperidin-3-yl)piperidine-4-carboxamide] | 112 |

Now from value to compound:

| IC50 [nM] | SMILES |
| --- | --- |
| 85.1 | COC(C)(C)C(=O)N(CC(=O)Nc1ccc2c(c1)C[C@@]1(C2)C(=O)Nc2ncccc21)[C@H]1CCCNC1 [Example 11, 2-Methoxy-2-methyl-N-(2-oxo-2-(((R)-2′-oxo-1,1′,2′,3-tetrahydrospiro[indene-2,3′-pyrrolo[2,3-b]pyridin]-5-yl)amino)ethyl)-N—((S)-piperidin-3-yl)propenamide] |
| 43.7 | CC(C)(C(=O)N(CC(=O)Nc1ccc2c(c1)C[C@@]1(C2)C(=O)Nc2ncccc21)[C@H]1CCCNC1)C(F)(F)F [Example 9, 3,3,3-Trifluoro-2,2-dimethyl-N-(2-oxo-2-(((R)-2′-oxo-1,1′,2′,3-tetrahydrospiro[indene-2,3′-pyrrolo[2,3-b]pyridin]-5-yl)amino)ethyl)-N—((S)-piperidin-3-yl)propanamide] |
| 200 | CC(C)(C)C(=O)N(CC(=O)Nc1ccc2c(c1)C[C@@]1(C2)C(=O)Nc2ncccc21)C1CCC2CCC1N2 (single isomer, unassigned) [Example 31B] |
| 178 | C[C@@H]1CC[C@H](N(CC(=O)Nc2ccc3c(c2)C[C@@]2(C3)C(=O)Nc3ncccc32)C(=O)C(C)(C)C)CN1 (relative stereo) [Example 29, N-((3S*,6R*)-6-Methylpiperidin-3-yl)-N-(2-oxo-2-(((R)-2′-oxo-1,1′,2′,3-tetrahydrospiro[indene-2,3′-pyrrolo[2,3-b]pyridin]-5-yl)amino)ethyl)pivalamide] |
| 8320 | CC(C)(F)C(=O)N(CC(=O)Nc1ccc2c(c1)C[C@@]1(C2)C(=O)Nc2ncccc21)[C@H]1CCCNC1 [Example 6, 2-Fluoro-2-methyl-N-[2-oxo-2-[[(3R)-2-oxospiro[1H-pyrrolo[2,3-b]pyridine-3,2′-indane]-5′-yl]amino]ethyl]-N-[(3S)-3-piperidyl]propanamide] |
| 63.1 | CC(C)(CC(F)(F)F)C(=O)N(CC(=O)Nc1ccc2c(c1)C[C@@]1(C2)C(=O)Nc2ncccc21)[C@H]1CCCNC1 [Example 13, 4,4,4-Trifluoro-2,2-dimethyl-N-(2-oxo-2-(((R)-2′-oxo-1,1′,2′,3-tetrahydrospiro[indene-2,3′-pyrrolo[2,3-b]pyridin]-5-yl)amino)ethyl)-N—((S)-piperidin-3-yl)butanamide] |
| 14.5 | CC(C)(C)C(=O)N(CC(=O)Nc1ccc2c(c1)CC1(C2)C(=O)Nc2ncccc21)C1CCCNC1 (stereo not shown) [Example 1, N-(2-Oxo-2-((2′-oxo-1,1′,2′,3-tetrahydrospiro[indene-2,3′-pyrrolo[2,3-b]pyridin]-5-yl)amino)ethyl)-N-(piperidin-3-yl)pivalamide] |
| 479 | CC(C)(C)C(=O)N(CC(=O)Nc1ccc2c(c1)CC1(C2)C(=O)Nc2ncccc21)C1CCCNCC1 (stereo not shown) [Example 26, N-(Azepan-4-yl)-N-(2-oxo-2-((2′-oxo-1,1′,2′,3-tetrahydrospiro[indene-2,3′-pyrrolo[2,3-b]pyridin]-5-yl)amino)ethyl)pivalamide] |
